Source: ChEMBL document CHEMBL4265914, “Discovery of selective urokinase plasminogen activator (uPA) inhibitors as a potential treatment for multiple sclerosis” (Bioorg Med Chem Lett, 2018)
pIC50: −log10 of the molar value. Calls of active or inactive are those of the source. The calls are words filed in the database; no cut-off is given here.

Tests used:
Plasminogen [1] = target: Plasminogen (Homo sapiens, UniProt P00747); assay: Inhibition of human plasmin
[2] = target: Urokinase-type plasminogen activator (Homo sapiens, UniProt P00749); assay: Inhibition of human uPA
[3] = target: Tissue-type plasminogen activator (Homo sapiens, UniProt P00750); assay: Inhibition of human tPA
Rattus norvegicus [4] = assay: Total AUC in rat at 2 mg/kg, po; format: ADME, organism-based; set-up: dose 2 mg/kg, route oral, time AUCmax; details: in vivo
Rattus norvegicus [5] = assay: Volume of distribution in rat at 2 mg/kg, po; format: ADME, organism-based; details: in vivo
[6] = Cmax in rat at 2 mg/kg, po; format: ADME, organism-based; set-up: dose 2 mg/kg, route oral; details: in vivo
[7] = Half life in rat at 2 mg/kg, po; format: ADME, organism-based; details: in vivo
[8] = Oral bioavailability in rat at 2 mg/kg; format: ADME, organism-based; details: in vivo
[9] = Clearance in rat at 2 mg/kg, po; format: ADME, organism-based; details: in vivo
[10] = target: Tissue-type plasminogen activator (Mus musculus, UniProt P11214); assay: Inhibition of mouse tPA
Plasminogen [11] = target: Plasminogen (Mus musculus, UniProt P20918); assay: Inhibition of mouse plasmin
[12] = target: Urokinase-type plasminogen activator (Mus musculus, UniProt P06869); assay: Inhibition of mouse uPA
Mus musculus [13] = assay: Prevention of multiple sclerosis development in chronic SJL mouse EAE model at 10 to 25 mg/kg, po bid; format: functional, organism-based
Mus musculus [14] = assay: Prevention of multiple sclerosis development in acute SJL mouse EAE model at 25 to 50 mg/kg, po bid; format: functional, organism-based
Mus musculus [15] = assay: Prevention of multiple sclerosis development in chronic SJL mouse EAE model at 50 mg/kg, po bid; format: functional, organism-based

Plasminogen (Homo sapiens, UniProt P00747), sequence (P00747 97-580 limits assumed): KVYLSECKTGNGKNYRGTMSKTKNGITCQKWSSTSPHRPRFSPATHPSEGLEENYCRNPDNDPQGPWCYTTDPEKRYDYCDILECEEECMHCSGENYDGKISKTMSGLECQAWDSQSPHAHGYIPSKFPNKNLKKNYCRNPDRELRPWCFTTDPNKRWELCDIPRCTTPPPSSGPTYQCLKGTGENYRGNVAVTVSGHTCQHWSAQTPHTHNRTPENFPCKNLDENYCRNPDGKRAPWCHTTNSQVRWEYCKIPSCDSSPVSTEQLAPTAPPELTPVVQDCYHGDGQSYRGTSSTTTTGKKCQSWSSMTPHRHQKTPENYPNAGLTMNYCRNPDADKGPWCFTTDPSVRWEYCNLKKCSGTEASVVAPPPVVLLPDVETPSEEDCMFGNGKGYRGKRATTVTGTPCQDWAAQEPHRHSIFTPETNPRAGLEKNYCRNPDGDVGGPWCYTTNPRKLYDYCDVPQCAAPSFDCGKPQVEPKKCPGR
Plasminogen (Homo sapiens, UniProt P00747), sequence (P00747 581-810 limits assumed): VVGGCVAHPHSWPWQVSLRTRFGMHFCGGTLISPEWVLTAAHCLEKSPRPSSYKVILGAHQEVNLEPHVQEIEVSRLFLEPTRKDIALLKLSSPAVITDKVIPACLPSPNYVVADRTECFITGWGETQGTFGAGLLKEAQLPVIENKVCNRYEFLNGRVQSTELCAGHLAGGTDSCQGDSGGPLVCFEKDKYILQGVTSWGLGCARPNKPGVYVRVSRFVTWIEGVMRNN
Tissue-type plasminogen activator (Homo sapiens, UniProt P00750), sequence (P00750 whole entry): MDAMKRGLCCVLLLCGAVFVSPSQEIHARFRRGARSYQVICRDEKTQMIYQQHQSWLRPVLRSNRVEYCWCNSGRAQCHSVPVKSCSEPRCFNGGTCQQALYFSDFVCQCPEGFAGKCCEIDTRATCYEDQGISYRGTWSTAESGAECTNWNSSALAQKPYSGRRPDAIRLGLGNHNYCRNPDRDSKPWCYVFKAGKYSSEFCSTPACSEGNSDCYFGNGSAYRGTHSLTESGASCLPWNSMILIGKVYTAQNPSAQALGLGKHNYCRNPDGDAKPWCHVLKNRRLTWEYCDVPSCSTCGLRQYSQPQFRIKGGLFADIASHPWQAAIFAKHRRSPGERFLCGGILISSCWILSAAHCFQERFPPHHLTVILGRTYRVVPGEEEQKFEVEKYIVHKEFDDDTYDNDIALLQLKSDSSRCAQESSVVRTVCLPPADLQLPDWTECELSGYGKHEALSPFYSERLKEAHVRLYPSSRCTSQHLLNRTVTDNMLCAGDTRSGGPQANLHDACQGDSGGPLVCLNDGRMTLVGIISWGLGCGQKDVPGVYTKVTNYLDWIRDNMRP
Tissue-type plasminogen activator (Mus musculus, UniProt P11214), sequence (P11214 whole entry): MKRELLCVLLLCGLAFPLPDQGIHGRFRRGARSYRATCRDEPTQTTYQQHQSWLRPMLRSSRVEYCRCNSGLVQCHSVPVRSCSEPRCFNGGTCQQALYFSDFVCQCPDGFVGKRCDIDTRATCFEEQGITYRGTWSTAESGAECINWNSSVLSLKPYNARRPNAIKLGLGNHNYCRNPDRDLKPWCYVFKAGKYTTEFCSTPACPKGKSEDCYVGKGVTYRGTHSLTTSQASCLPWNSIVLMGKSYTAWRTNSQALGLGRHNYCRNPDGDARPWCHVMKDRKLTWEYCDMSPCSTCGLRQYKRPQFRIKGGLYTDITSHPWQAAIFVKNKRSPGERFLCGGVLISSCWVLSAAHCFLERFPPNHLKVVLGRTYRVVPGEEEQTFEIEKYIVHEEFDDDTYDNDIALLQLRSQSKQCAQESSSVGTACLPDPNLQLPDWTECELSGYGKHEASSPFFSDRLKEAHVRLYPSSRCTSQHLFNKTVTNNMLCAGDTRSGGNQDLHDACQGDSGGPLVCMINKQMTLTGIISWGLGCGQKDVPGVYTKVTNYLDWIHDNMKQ
Urokinase-type plasminogen activator (Mus musculus, UniProt P06869), sequence (P06869 21-178 limits assumed): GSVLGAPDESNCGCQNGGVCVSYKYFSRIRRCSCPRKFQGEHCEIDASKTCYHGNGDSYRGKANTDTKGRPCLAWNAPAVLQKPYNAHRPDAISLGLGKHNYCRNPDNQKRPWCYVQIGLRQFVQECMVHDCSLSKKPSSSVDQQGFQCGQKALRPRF
Urokinase-type plasminogen activator (Mus musculus, UniProt P06869), sequence (P06869 180-433 limits assumed): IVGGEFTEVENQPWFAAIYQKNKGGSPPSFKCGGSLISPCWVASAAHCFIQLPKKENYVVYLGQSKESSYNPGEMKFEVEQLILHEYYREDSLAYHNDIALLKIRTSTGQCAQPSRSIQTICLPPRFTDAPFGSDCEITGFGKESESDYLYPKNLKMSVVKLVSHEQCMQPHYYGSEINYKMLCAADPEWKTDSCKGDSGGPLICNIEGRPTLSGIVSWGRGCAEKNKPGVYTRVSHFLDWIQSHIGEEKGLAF
Plasminogen (Mus musculus, UniProt P20918), sequence (P20918 98-581 limits assumed): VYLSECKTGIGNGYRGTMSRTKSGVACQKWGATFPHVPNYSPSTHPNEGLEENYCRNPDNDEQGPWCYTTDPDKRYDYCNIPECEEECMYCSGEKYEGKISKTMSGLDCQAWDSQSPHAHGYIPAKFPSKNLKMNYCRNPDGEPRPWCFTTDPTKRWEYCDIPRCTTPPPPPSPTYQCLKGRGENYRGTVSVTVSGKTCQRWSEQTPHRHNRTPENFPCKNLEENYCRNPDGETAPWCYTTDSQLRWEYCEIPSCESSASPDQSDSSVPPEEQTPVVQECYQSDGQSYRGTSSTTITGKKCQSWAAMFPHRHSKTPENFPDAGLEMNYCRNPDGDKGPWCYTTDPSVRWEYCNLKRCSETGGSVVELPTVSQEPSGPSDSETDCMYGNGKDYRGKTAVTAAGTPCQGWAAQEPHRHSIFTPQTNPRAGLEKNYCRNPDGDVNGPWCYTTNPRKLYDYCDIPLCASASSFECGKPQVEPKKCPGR
Plasminogen (Mus musculus, UniProt P20918), sequence (P20918 582-812 limits assumed): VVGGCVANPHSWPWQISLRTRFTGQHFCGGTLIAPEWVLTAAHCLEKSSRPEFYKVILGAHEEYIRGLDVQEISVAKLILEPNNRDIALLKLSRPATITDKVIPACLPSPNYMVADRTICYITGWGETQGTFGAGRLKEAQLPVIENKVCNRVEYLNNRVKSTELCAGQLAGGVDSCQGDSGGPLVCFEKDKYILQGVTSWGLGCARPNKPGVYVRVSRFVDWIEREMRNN

Compound	pIC50 (Plasminogen [1])	pIC50 [2]	pIC50 [3]	also measured
C[C@@H](Oc1nc(Oc2cccc(-c3cccc(CN)c3)c2)c(F)cc1F)C(=O)O	5.29	6.44		
CC[C@H](Oc1nc(Oc2cccc(-c3cccc(CN)c3)c2)c(F)cc1F)C(=O)O	< 4.52	5.14	< 4.52	
CC(C)(C)[C@@H](Oc1nc(Oc2cc(C#N)cc(-c3cccc(CN)c3)c2)c(F)cc1F)C(=O)O	5.27	7.47	5.24	
CC(C)(C)[C@@H](Oc1nc(Oc2cccc(-c3cccc(CN)c3)c2)c(F)cc1F)C(=O)O	5.26	7.08	5.84	
NCc1cccc(-c2cccc(Oc3nc(OCC(=O)O)c(F)cc3F)c2)c1		5.48		

The remaining molecules from weak to strong by pIC50 [2], led by results:

pIC50 (Plasminogen [1])	pIC50 [2]	pIC50 [3]	Compound	also measured
5.73	6.63	5.80	CC[C@@H](Oc1nc(Oc2cccc(-c3cccc(CN)c3)c2)c(F)cc1F)C(=O)O	AUC (Rattus norvegicus [4]): 2200 ng·h/mL; Vd (Rattus norvegicus [5]): 0.76 L/kg; Cmax [6]: 640 ng/mL; half-life [7]: 2.8 h; bioavailability [8]: 55%; CL/F [9]: 8.4 mL/min/kg
5.88	7.10	5.80	CC[C@@H](Oc1nc(Oc2cc(C)cc(-c3cccc(CN)c3)c2)c(F)cc1F)C(=O)O	AUC (Rattus norvegicus [4]): 13200 ng·h/mL; Vd (Rattus norvegicus [5]): 0.6 L/kg; pIC50 [10]: 6.04; half-life [7]: 2.2 h; pIC50 (Plasminogen [11]): 5.80; pIC50 [12]: 6.39; bioavailability [8]: 30%; CL/F [9]: 4 mL/min/kg; Activity (Mus musculus [13]): inactive; Activity (Mus musculus [14]): Active; Activity (Mus musculus [15]): Active
5.72	7.29	6.33	Cc1cc(Oc2nc(O[C@@H](C(=O)O)C(C)(C)C)c(F)cc2F)cc(-c2cccc(CN)c2)c1	
5.48	7.64	5.73	COc1cc(Oc2nc(O[C@@H](C(=O)O)C(C)(C)C)c(F)cc2F)cc(-c2cccc(CN)c2)c1	
